This note sets out measurements from paper PMC6214108, “Synthesis and In Vitro Antitumor Activity of Novel Bivalent β-Carboline-3-carboxylic Acid Derivatives with DNA as a Potential Target” (International Journal of Molecular Sciences, 2018).

Assay type in all cases: cell-based
For assay [1], the system named is A549 cells. Nature of the assay: Cell cycle assay, PI single staining, flow cytometry. Conditions: 48 h. Here is the method:
The cell cycle was determined by PI single staining. A549 cells (1 × 10^6 cells per well) seeded into 6-well plates (JET, Guangzhou, China) were incubated with DMEM containing various concentrations (2, 4, and 8 μM) of β-carbolines (4B, 6i, 4D, and 6u) for 48 h at 37 °C and 5% CO2. The cells were harvested, washed with pre-cooled PBS (4 °C), and fixed with pre-cooled 90% ethanol (4 °C). Then, the cells were incubated with 20 μL RNAse (30 μg/mL) and 20 μL PI (50 μg/mL) (Sigma Aldrich, Saint Louis, MO, USA) for 30 min at 37 °C. The samples were analyzed using flow cytometry (BD FACSCalibur, San Jose, CA, USA).
Figure 2 The cell cycle was detected by flow cytometry using PI single staining. A549 cells were treated with 4B, 6i, 4D, and 6u at 2, 4, and 8 μM for 48 h, and then stained with PI for 30 min at 37 °C. The proportions of cells containing different DNA content were analyzed by FCS Express 5.0 (De Novo Software, Thornhill, Canada).
On the technique in general: In flow cytometry, cells or beads pass a laser one at a time.

The test system of assay [2] is A549 (lung carcinoma) cell line. Nature of the assay: MTT cytotoxicity assay, A549. Conditions: Homo sapiens, 48 h, mean of three independent experiments, read-out: IC50 (μM) Mean ± SD, A549. On the procedure:
(§1) All cell lines (A549, SGC-7901, Hela, SMMC-7721, and MCF-7) were purchased from the American Type Culture Collection (Manassas, VA, USA), and were cultured in Dulbecco’s modified Eagle’s medium (DMEM, HycloneLaboratories Inc., Logan, Utah, USA) supplemented with 10% fetal bovine serum (FBS, Gibco&Invitrogen, Carlsbad, CA, USA) at 37 °C and 5% CO2.
(§2) The cytotoxic activities of β-carboline-3-carboxylic acid derivatives were investigated by the MTT method, as previously described. Cells (1 × 10^4 cells per well) seeded into 96-well plates (JET, Guangzhou, China) were incubated with DMEM containing various concentrations (2.5, 5, 10, 20, 40, and 80 μM) of β-carbolines (4A, 4B, 4C, 4D, 6a-6f, 6g-6l, 6m-6r, and 6s-6x) for 48 h at 37 °C and 5% CO2. Then, 10 µL of 5 mg/mL MTT reagent dissolved in PBS (Phosphate buffered saline) was added per well, and plates were incubated at 37 °C for 4 h. The medium was carefully removed and 100 µL dimethyl sulfoxide (DMSO) was added to dissolve the formazan crystals. The absorbance was measured at 490 nm with a microplate reader (ThermoFisher Scientific Inc., Waltham, MA, USA). The β-carbolines were dissolved in DMSO as stock solutions (10 mM) at −20 °C, and diluted in the final experimental solution using DMEM before use. A549 (lung carcinoma), SGC-7901 (gastric carcinoma), Hela (cervical carcinoma), SMMC-7721 (liver carcinoma), and MCF-7 (breast carcinoma) cell lines were used for the antitumor activity screening. The IC50 values were the mean values of three independent experiments.
A general note: Tetrazolium dyes change colour on reduction, which living cells bring about.

For assay [3], the system named is A549 cells. Nature of the assay: Hoechst 33342/PI dual staining, morphological observation of apoptosis. The conditions noted are these: A549, 48 h, 8 μM (Figure 1 legend; method says 4 μM). On the procedure: The morphological observation of apoptosis was performed by Hoechst 33342 and propidium iodide (PI) dual staining according to the manufacturer’s instructions. A549 cells (2 × 10^4 cells per well) seeded into 24-well plates (JET, Guangzhou, China) were incubated with DMEM containing 4 μM of β-carbolines (4B, 6i, 4D, and 6u) for 48 h at 37 °C and 5% CO2. Then, the cells were stained by Hoechst 33342 and PI at 37 °C for 30 min in dark conditions. Finally, cells were observed and photographed with a fluorescence microscope (LeicaDM6B, Leica, Nussloch, Germany).
Figure 1 Morphological observation was performed by Hoechst 33342/propidium iodide (PI) dual staining. A549 cells were treated with 4B, 6i, 4D, and 6u at 8 μM for 48 h, and then stained with Hoechst 33342 and PI at 37 °C in dark conditions. The stained cells were observed under a fluorescence microscope (Leica DM6B, Leica, Nussloch, Germany). Hoechst 33342 was used to stain the living and apoptotic nuclei, and emitted blue fluorescence (upper). PI was used to stain the dead nuclei and emitted red fluorescence (lower).

For assay [4], the system named is SGC-7901 (gastric carcinoma) cell line. Nature of the assay: MTT cytotoxicity assay, SGC-7901. The conditions noted are these: Homo sapiens, 48 h, mean of three independent experiments, read-out: IC50 (μM) Mean ± SD, SGC-7901. On the procedure: as §1, §2
For assay [5], the system named is MRC5 (normal lung cell) cell line. Nature of the assay: MTT cytotoxicity assay, MRC5. Conditions: Homo sapiens, 48 h. On the procedure: [The procedure below names another cell line; the source lists this cell line under the same test.] as §2
The subject of assay [6] is SMMC-7721 (liver carcinoma) cell line. Nature of the assay: MTT cytotoxicity assay, SMMC-7721. Conditions: Homo sapiens, 48 h, mean of three independent experiments, read-out: IC50 (μM) Mean ± SD, SMMC-7721. On the procedure:
as §1, §2

The IC50 is the point on the concentration scale where inhibition reaches its midpoint.

`COC(=O)c1cc2c3ccccc3n(Cc3ccccc3F)c2cn1` [Compound 4D]: the “Percentage of Cell Cycles (%) G1” value in the assay with A549 cells [1] (A549, 2 μM) stood at 56.89%; in the assay on A549 cells [1] (A549, 4 μM), 47.21%; with A549 cells [1] (A549, 8 μM), 88.01%. For the same compound, the “Percentage of Cell Cycles (%) G2/M” value in the assay on A549 cells [1] (A549, 2 μM) is given as 18.94%; with A549 cells [1] (A549, 4 μM), 35.46%; with A549 cells [1] (A549, 8 μM), 0.3%. The “Percentage of Cell Cycles (%) S” value is listed as 24.17% in the assay on A549 cells [1] (A549, 2 μM); 17.33% in the assay on A549 cells [1] (A549, 4 μM); 11.69% in the assay with A549 cells [1] (A549, 8 μM). Also, the “Percentage of Cell Cycles (%) SubG1” value in the assay with A549 cells [1] (A549, 2 μM) was found to be 6.41%; in the assay on A549 cells [1] (A549, 4 μM), 39.03%; in the assay on A549 cells [1] (A549, 8 μM) it was 46.29%. Besides, the half-inhibitory concentration (IC50) in assay [2] was determined as 13.94 ± 0.07 µM; in assay [4] it was 17.8 ± 0.66 µM; in assay [5], 35.38 ± 0.01 µM; in assay [6], 35.6 ± 1.33 µM. For the same compound, the “Morphological observation of cell apoptosis (Hoechst 33342/PI)” value (from here on “Morphological observation”) in the assay on A549 cells [3] is “could induce cell apoptosis and further cell necrosis”.
With `Cc1ccccc1Cn1c2ccccc2c2cc(C(=O)OCCCCCOC(=O)c3cc4c5ccccc5n(Cc5ccccc5C)c4cn3)ncc21` [Compound 6i], the “Percentage of Cell Cycles (%) G1” value in the assay with A549 cells [1] (A549, 2 μM) was determined as 57.38%; with A549 cells [1] (A549, 4 μM), 45.19%; in the assay with A549 cells [1] (A549, 8 μM) it was 46.64%. Moreover, the “Percentage of Cell Cycles (%) G2/M” value in the assay on A549 cells [1] (A549, 2 μM) turned out to be 10.54%; in the assay with A549 cells [1] (A549, 4 μM) it was 42.40%; in the assay on A549 cells [1] (A549, 8 μM) it was 0.06%. The “Percentage of Cell Cycles (%) S” value is 32.08% with A549 cells [1] (A549, 2 μM); 12.41% in the assay on A549 cells [1] (A549, 4 μM); 53.30% in the assay on A549 cells [1] (A549, 8 μM). For the same compound, the “Percentage of Cell Cycles (%) SubG1” value in the assay with A549 cells [1] (A549, 2 μM) was 6.86%; in the assay with A549 cells [1] (A549, 4 μM) it was 26.33%; with A549 cells [1] (A549, 8 μM), 21.32%. In addition, the IC50 in assay [2] was 6.93 ± 0.33 µM; in assay [4] it was 7.18 ± 0.01 µM; in assay [5] it was 37.99 ± 0.1 µM; in assay [6] it was 14.2 ± 0.28 µM. Further, the “Morphological observation” value in the assay with A549 cells [3] is “could induce cell apoptosis and further cell necrosis”.
With `O=C(OCCCCCOC(=O)c1cc2c3ccccc3n(Cc3ccccc3F)c2cn1)c1cc2c3ccccc3n(Cc3ccccc3F)c2cn1` [Compound 6u], the “Percentage of Cell Cycles (%) G1” value in the assay with A549 cells [1] (A549, 2 μM) is 56.24%; with A549 cells [1] (A549, 4 μM), 47.06%; in the assay on A549 cells [1] (A549, 8 μM), 81.62%. Also, the “Percentage of Cell Cycles (%) G2/M” value with A549 cells [1] (A549, 2 μM) is on record as 19.97%; with A549 cells [1] (A549, 4 μM), 40.34%; with A549 cells [1] (A549, 8 μM), 18.30%. The “Percentage of Cell Cycles (%) S” value in the assay with A549 cells [1] (A549, 2 μM) was found to be 23.79%; in the assay on A549 cells [1] (A549, 4 μM), 12.60%; with A549 cells [1] (A549, 8 μM), 0.08%. The “Percentage of Cell Cycles (%) SubG1” value in the assay on A549 cells [1] (A549, 2 μM) is given as 6.84%; with A549 cells [1] (A549, 4 μM), 46.25%; with A549 cells [1] (A549, 8 μM) it was 44.92%. Moreover, the IC50 in assay [2] was found to be 5.61 ± 0.04 µM; in assay [4], 5.86 ± 0.08 µM; in assay [5], 39.89 ± 0.05 µM; in assay [6] it was 16.68 ± 0.11 µM. The “Morphological observation” value in the assay with A549 cells [3] is “could induce cell apoptosis and further cell necrosis”.
Take `COC(=O)c1cc2c3ccccc3n(Cc3ccccc3C)c2cn1` [Compound 4B]: the “Percentage of Cell Cycles (%) G1” value came to 59.38% in the assay on A549 cells [1] (A549, 2 μM); 43.06% in the assay with A549 cells [1] (A549, 4 μM); 52.09% in the assay on A549 cells [1] (A549, 8 μM). The “Percentage of Cell Cycles (%) G2/M” value in the assay with A549 cells [1] (A549, 2 μM) is 15.46%; in the assay on A549 cells [1] (A549, 4 μM), 46.96%; with A549 cells [1] (A549, 8 μM) it was 2.1%. Also, the “Percentage of Cell Cycles (%) S” value in the assay on A549 cells [1] (A549, 2 μM) turned out to be 25.16%; in the assay on A549 cells [1] (A549, 4 μM), 9.98%; in the assay with A549 cells [1] (A549, 8 μM) it was 45.81%. Further, the “Percentage of Cell Cycles (%) SubG1” value is 6.56% in the assay on A549 cells [1] (A549, 2 μM); 10.49% in the assay with A549 cells [1] (A549, 4 μM); 4.15% in the assay with A549 cells [1] (A549, 8 μM). Moreover, the IC50 in assay [2] was 39.2 ± 1.18 µM; in assay [4], 42.3 ± 2.13 µM; in assay [5], 51.78 ± 0.1 µM; in assay [6], greater than 80 µM. Besides, in the assay with A549 cells [3], the “Morphological observation” value is listed as “could only induce cell apoptosis in a dose-dependent manner”.
